Measured values from patent US5442043A, “Peptide conjugate” (Takeda Chemical Industries, Ltd., priority 1992, dated 1995).
Bridge positions count the residues as written; N and C are the ends. Peptide text beside a SMILES is read from it. I, II: the chains in the order shown.

Legend:
[1] = target: T1, insulin receptor on the capillary endothelial cell (Bos taurus, UniProt F1MV64); assay: Competitive inhibition of 125I-insulin binding on bovine brain microvessel endothelial cell monolayers
T1 construct: endogenous in cells; host or cells: primary bovine brain microvessel endothelial cell monolayers
T1 sequence (F1MV64 28-1382): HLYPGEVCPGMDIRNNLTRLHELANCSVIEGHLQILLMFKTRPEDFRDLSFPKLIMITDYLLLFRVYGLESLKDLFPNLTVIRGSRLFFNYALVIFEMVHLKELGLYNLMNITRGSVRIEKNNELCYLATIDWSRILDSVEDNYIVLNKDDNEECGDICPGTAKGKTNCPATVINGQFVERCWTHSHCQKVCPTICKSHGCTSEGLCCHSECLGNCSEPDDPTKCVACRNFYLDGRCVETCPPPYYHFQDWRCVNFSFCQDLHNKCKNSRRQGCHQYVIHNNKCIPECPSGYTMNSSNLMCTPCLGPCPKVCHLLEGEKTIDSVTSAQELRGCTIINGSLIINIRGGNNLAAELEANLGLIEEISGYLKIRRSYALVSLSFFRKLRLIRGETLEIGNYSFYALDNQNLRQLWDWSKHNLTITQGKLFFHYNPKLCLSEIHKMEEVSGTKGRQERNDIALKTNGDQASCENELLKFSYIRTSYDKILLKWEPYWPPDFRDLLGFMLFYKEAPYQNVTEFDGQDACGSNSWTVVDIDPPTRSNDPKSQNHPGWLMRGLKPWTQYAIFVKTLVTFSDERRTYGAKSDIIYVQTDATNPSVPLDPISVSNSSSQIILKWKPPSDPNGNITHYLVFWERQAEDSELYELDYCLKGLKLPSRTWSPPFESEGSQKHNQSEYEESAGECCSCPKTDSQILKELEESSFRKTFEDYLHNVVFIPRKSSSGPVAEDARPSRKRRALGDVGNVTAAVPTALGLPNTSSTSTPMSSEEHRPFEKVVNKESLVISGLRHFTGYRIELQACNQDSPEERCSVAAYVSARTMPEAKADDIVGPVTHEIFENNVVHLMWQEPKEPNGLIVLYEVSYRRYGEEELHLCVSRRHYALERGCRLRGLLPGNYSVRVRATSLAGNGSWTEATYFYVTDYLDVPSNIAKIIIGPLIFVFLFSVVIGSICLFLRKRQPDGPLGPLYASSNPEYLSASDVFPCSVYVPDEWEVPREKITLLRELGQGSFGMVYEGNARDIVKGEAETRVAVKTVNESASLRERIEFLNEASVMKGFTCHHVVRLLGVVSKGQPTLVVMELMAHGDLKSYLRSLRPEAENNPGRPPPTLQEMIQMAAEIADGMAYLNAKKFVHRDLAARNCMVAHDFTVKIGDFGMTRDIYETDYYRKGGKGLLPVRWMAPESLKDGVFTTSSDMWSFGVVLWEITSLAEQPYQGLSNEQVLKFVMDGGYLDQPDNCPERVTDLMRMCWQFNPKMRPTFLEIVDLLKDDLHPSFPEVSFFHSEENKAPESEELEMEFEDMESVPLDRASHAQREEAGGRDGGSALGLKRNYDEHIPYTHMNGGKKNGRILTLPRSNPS
Protocol: In accordance with the description by Ronald T. Borchart et al. of the United States in "Characteristics of the Large Neutral Amino Acid Transport System of Bovine Brain Microvessel Endothelial Cell Monolayers" [Journal of Neurochemistry, Vol. 47, pp. 484-488 (1986)], bovine brain microvessel endothelial cells were separated in a monolayer, whose affinity for the receptor on the endothelial cell was determined.

[2] = compared with natural insulin; cited from earlier work

| Compound | 125I-insulin binding ratio (%) after addition of non-labeled compound ([1]; addition concentration 1.0 × 10 μM) | 125I-insulin binding ratio (%) after addition of non-labeled compound ([1]; addition concentration 1.0 × 10^2 μM (first line so printed)) | 125I-insulin binding ratio (%) after addition of non-labeled compound ([1]; addition concentration 1.0 × 10^2 μM (second line so printed)) | Affinity for the insulin receptor on the capillary endothelial cell (in words) ([1]; fragments obtained by solid phase synthesis, Examples 4 and 5) | Affinity for the receptor on the cerebral capillary endothelial cell (in words) ([1]; fragments obtained by trypsin digestion, Examples 1 and 2) | Insulin activity (in words) [2] |
| --- | --- | --- | --- | --- | --- | --- |
| CC[C@H](C)[C@H](NC(=O)CN)C(=O)N[C@H](C(=O)N[C@@H](CCC(=O)O)C(=O)N[C@@H](CCC(N)=O)C(=O)N[C@H]1CSSC[C@@H](C(=O)N[C@@H](CO)C(=O)N[C@@H](CC(C)C)C(=O)N[C@@H](Cc2ccc(O)cc2)C(=O)O)NC(=O)[C@H]([C@@H](C)CC)NC(=O)[C@H](CO)NC(=O)[C@H]([C@@H](C)O)NC(=O)[C@H](CSSC[C@H](NC(=O)[C@H](CC(C)C)NC(=O)[C@H](Cc2c[nH]cn2)NC(=O)[C@H](CCC(N)=O)NC(=O)[C@H](CC(N)=O)NC(=O)[C@@H](NC(=O)[C@@H](N)Cc2ccccc2)C(C)C)C(=O)NCC(=O)N[C@@H](CO)C(=O)N[C@@H](Cc2c[nH]cn2)C(=O)N[C@@H](CC(C)C)C(=O)N[C@H](C(=O)N[C@@H](CCC(=O)O)C(=O)N[C@@H](C)C(=O)N[C@@H](CC(C)C)C(=O)N[C@@H](Cc2ccc(O)cc2)C(=O)O)C(C)C)NC1=O)C(C)C [F001] (I: H-FVNQHLCGSHLVEALY-OH / II: H-GIVEQCCTSICSLY-OH; disulfide I:7-II:7, II:6-II:11) | 93.2 ± 0.4% | 61.6 ± 1.2% | 78.5 ± 3.8% | same affinity as insuline frogments obtained in Example 1 and 2 | showed affinity |  |
| (B25-30) pentapeptide deficient-[Phe^B25 -α-carboxyamide]insulin |  |  |  |  |  | acts as potently as natural insulin |
